Read-outs that look alike come from different tables or passages of the source. Numbered stars: 1 amine (or outer) side, 2 acyl side, 3 side chain; on linkers, the order of the positions; unused ones are H or OH. Square brackets hold non-standard residues; d marks the D form. Side chains are listed from the residue outwards. Peptide text beside a SMILES is read from it. * marks the point of attachment. C18 diacid = O=C(O)CCCCCCCCCCCCCCCCC(=O)*; γGlu = O=C(O)[C@H](CCC(=O)[*:2])N[*:1]; αMeF = C[C@](N)(Cc1ccccc1)C(=O)O; αMeK = C[C@](N)(CCCCN)C(=O)O; αMeS = C[C@](N)(CO)C(=O)O; AEEA = NCCOCCOCC(=O)O; Aib = CC(C)(N)C(=O)O Bounds are passed on as bounds.

This passage reports EC50 results from patent publication US20210221866A1, “PROTEASE-RESISTANT LIPIDATED GLP-1 ANALOGS” (MEDIMMUNE LIMITED, priority 2015, published 2021).

What all share (type): cell-based
In experiment [1] the target is T1, human GLP-1 receptor (GLP-1R) (Homo sapiens, UniProt P43220).
T1 construct: expressed in transfected cells; host or cells: HEK293 cells or CHO cells
T1 sequence (P43220 24-463): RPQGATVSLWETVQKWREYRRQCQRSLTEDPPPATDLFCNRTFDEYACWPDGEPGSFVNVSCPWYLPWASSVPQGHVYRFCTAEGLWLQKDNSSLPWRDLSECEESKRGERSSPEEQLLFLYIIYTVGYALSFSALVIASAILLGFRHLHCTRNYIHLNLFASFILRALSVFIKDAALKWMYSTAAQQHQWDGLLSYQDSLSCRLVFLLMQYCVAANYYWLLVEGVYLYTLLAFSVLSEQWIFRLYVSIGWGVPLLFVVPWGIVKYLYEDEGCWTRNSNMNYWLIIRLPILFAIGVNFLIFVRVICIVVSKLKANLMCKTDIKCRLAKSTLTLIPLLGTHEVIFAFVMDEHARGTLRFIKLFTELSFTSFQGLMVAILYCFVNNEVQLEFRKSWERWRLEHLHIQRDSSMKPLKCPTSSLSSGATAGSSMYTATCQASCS
In words: cAMP assay, human GLP-1R cells. The note with it: cAMP activity. A digest of the protocol:
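Peptide-stimulated cAMP measured by two-step HTRF after a 30 min room-temperature incubation with receptor-expressing cells (hGLP-1R, hGIPR at 1×10^5 cells/ml; hGCGR at 2×10^5 cells/ml). Duplicate dilutions; EC50 from 4-parameter logistic fit of % Delta F.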
In general terms: cAMP levels reflect the balance of adenylyl cyclase and phosphodiesterase activity.

The target of experiment [2] is T2, human glucose-dependent insulinotropic peptide receptor (GIPR) (Homo sapiens, UniProt P48546).
T2 construct: expressed in transfected cells; host or cells: HEK293 cells or CHO cells
T2 sequence (P48546 22-466): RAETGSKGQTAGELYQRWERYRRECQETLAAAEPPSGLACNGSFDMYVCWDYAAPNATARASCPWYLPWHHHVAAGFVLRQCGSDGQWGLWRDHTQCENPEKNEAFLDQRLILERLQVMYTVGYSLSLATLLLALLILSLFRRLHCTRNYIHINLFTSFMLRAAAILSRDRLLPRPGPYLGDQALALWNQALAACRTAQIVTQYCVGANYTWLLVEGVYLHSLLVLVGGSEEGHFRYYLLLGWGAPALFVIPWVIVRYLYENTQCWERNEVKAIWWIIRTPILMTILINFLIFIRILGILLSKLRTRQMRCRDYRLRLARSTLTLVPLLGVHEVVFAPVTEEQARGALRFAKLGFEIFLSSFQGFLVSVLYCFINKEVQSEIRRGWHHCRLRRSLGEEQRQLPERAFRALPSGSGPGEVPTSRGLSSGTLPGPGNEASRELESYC
Description: cAMP assay, human GIPR cells. Particulars: cAMP activity, read-out: Primary assay EC50 GIP-R. As for the experimental part:
(§1) Sample dilutions are made in duplicate.
(§2) A frozen cryo-vial of cells expressing the receptor of interest is thawed rapidly in a water-bath, transferred to pre-warmed assay buffer and spun at 240×g for 5 minutes. Cells are re-suspended in assay buffer at a batch-dependent optimized concentration (e.g. hGCGR cells at 2×10^5 cells/ml, hGLP-1R and hGIPR cells at 1×10^5 cells/ml).
(§3) To this, 5 μL cell suspension is added and the plates incubated at room temperature for 30 minutes.
(§4) cAMP levels are measured using a commercially available cAMP dynamic 2 HTRF kit (Cisbio, Cat #62AM4PEJ), following the two step protocol as per manufacturer's recommendations. In brief; anti-cAMP cryptate (donor fluorophore) and cAMP-d2 (acceptor fluorophore) are made up separately by diluting each 1/20 in conjugate & lysis buffer provided in the kit. 5 μL anti-cAMP cryptate is added to wells of the assay plate, and 5 μL cAMP-d2 is added to wells except non-specific binding (NSB) wells, to which conjugate and lysis buffer are added. […] EC50 values of the synthetic peptides determined in cAMP assays are then determined.
(§5) Data is transformed to % Delta F as described in the manufacturer's guidelines and analyzed by 4-parameter logistic fit to determine EC50 values. […] To compare the balance of activities at the GLP-1R and GCGR between different peptides and across different conditions, these can be correlated, where the EC50's are related to those of comparator peptides.

Experiment [3] addresses T3, human glucagon receptor (GCGR) (Homo sapiens, UniProt P47871).
T3 construct: expressed in transfected cells; host or cells: HEK293 cells or CHO cells
Description: cAMP assay, human GCGR cells. Particulars: cAMP activity; second determination (n2); read-out: Primary assay EC50 Gluc-R. As for the experimental part:
as §1, §2, §3, §4, §5

[4] abbreviates: first determination (n1), read-out: Primary assay EC50 GLP-1R n1.
Setting [5] is: mean of n1 and n2, read-out: Mean pM GLP-1R.
Setting [6] is: second determination (n2), read-out: Primary assay EC50 GLP-1R n2.

T3 sequence (P47871 26-477): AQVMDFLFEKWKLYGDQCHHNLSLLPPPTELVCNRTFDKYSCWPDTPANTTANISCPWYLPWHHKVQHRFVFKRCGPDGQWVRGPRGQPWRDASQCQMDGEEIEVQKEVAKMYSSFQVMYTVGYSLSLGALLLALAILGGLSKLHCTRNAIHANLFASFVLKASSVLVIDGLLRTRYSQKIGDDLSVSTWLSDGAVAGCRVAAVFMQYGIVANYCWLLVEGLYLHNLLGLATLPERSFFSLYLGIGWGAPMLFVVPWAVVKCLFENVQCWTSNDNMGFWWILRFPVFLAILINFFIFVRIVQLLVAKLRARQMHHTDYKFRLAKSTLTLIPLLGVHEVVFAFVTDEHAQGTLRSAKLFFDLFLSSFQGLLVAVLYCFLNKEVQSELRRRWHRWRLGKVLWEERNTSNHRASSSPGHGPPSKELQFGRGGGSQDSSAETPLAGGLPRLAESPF

As for `CC(C)C[C@H](NC(=O)[C@](C)(Cc1ccccc1)NC(=O)[C@H](CO)NC(=O)[C@](C)(CO)NC(=O)[C@@H](NC(=O)[C@H](CC(=O)O)NC(=O)[C@H](CO)NC(=O)[C@@H](NC(=O)[C@](C)(Cc1ccccc1)NC(=O)[C@H](CO)NC(=O)CNC(=O)[C@H](CCC(=O)O)NC(=O)C(C)(C)NC(=O)[C@@H](N)Cc1c[nH]cn1)[C@@H](C)O)C(C)C)C(=O)N[C@@H](CCC(=O)O)C(=O)NCC(=O)N[C@@H](CCC(=O)O)C(=O)N[C@@H](C)C(=O)N[C@@H](C)C(=O)N[C@@](C)(CCCCN)C(=O)N[C@@H](CCC(=O)O)C(=O)N[C@@](C)(Cc1ccccc1)C(=O)N[C@@H](CCCCNC(=O)COCCOCCNC(=O)COCCOCCNC(=O)CC[C@H](NC(=O)CCCCCCCCCCCCCCCCC(=O)O)C(=O)O)C(=O)N[C@@H](C)C(=O)N[C@@](C)(Cc1ccccc1)C(=O)N[C@H](C(=O)N[C@H](C(=O)N[C@@](C)(CCCCN)C(=O)NCC(=O)NCC(N)=O)C(C)C)C(C)C` [compound 106] (H-H[Aib]EGS[αMeF]TSDV[αMeS]S[αMeF]LEGEAA[αMeK]E[αMeF]K([AEEA-AEEA-γGlu-C18 diacid])A[αMeF]VV[αMeK]GG-NH2), the EC50 in experiment [1] (setting [4]) is 6500 pM; in experiment [1] (setting [5]), 6140 pM; in experiment [1] (setting [6]), 5790 pM; in experiment [2] (first determination (n1)), not below 25 nM; in experiment [2] (second determination (n2)), not below 25.3 nM; in experiment [3] it was not below 25.3 nM.

`CC[C@H](C)[C@H](NC(=O)[C@](C)(Cc1ccccc1)NC(=O)[C@H](CCC(=O)O)NC(=O)[C@](C)(CCCCN)NC(=O)[C@H](C)NC(=O)[C@H](C)NC(=O)[C@H](CCC(=O)O)NC(=O)CNC(=O)[C@H](CCC(=O)O)NC(=O)[C@H](CC(C)C)NC(=O)[C@](C)(Cc1ccccc1)NC(=O)[C@H](CO)NC(=O)[C@H](CCCCNC(=O)COCCOCCNC(=O)COCCOCCNC(=O)CC[C@H](NC(=O)CCCCCCCCCCCCCCCCC(=O)O)C(=O)O)NC(=O)[C@@H](NC(=O)[C@H](CC(=O)O)NC(=O)[C@H](CO)NC(=O)[C@@H](NC(=O)[C@](C)(Cc1ccccc1)NC(=O)[C@H](CO)NC(=O)CNC(=O)[C@H](CCC(=O)O)NC(=O)C(C)(C)NC(=O)[C@@H](N)Cc1c[nH]cn1)[C@@H](C)O)C(C)C)C(=O)N[C@@H](C)C(=O)N[C@@](C)(Cc1ccccc1)C(=O)N[C@H](C(=O)N[C@H](C(=O)N[C@@](C)(CCCCN)C(=O)NCC(=O)NCC(N)=O)C(C)C)C(C)C` [compound 118]: the EC50 in experiment [1] (setting [4]) is 810 pM; in experiment [1] (setting [5]) it was 783 pM; in experiment [1] (setting [6]), 758 pM; in experiment [2] (first determination (n1)), not below 25 nM; in experiment [2] (second determination (n2)) it was not below 25.2 nM; in experiment [3], not below 25.2 nM.

Turning to `CC[C@H](C)[C@H](NC(=O)[C@](C)(Cc1ccccc1)NC(=O)[C@H](CCC(=O)O)NC(=O)[C@](C)(CCCCN)NC(=O)[C@H](C)NC(=O)[C@H](C)NC(=O)[C@H](CCC(=O)O)NC(=O)CNC(=O)[C@H](CCC(=O)O)NC(=O)[C@H](CC(C)C)NC(=O)[C@](C)(Cc1ccccc1)NC(=O)[C@H](CO)NC(=O)[C@](C)(CO)NC(=O)[C@@H](NC(=O)[C@H](CC(=O)O)NC(=O)[C@H](CCCCNC(=O)COCCOCCNC(=O)COCCOCCNC(=O)CC[C@H](NC(=O)CCCCCCCCCCCCCCCCC(=O)O)C(=O)O)NC(=O)[C@@H](NC(=O)[C@](C)(Cc1ccccc1)NC(=O)[C@H](CO)NC(=O)CNC(=O)[C@H](CCC(=O)O)NC(=O)C(C)(C)NC(=O)[C@@H](N)Cc1c[nH]cn1)[C@@H](C)O)C(C)C)C(=O)N[C@@H](C)C(=O)N[C@@](C)(Cc1ccccc1)C(=O)N[C@H](C(=O)N[C@H](C(=O)N[C@@](C)(CCCCN)C(=O)NCC(=O)NCC(N)=O)C(C)C)C(C)C` [compound 121] (H-H[Aib]EGS[αMeF]TK([AEEA-AEEA-γGlu-C18 diacid])DV[αMeS]S[αMeF]LEGEAA[αMeK]E[αMeF]IA[αMeF]VV[αMeK]GG-NH2; N-terminus assumed), the EC50 in experiment [1] (setting [4]) was not below 25000 pM; in experiment [1] (setting [5]), not below 25100 pM; in experiment [1] (setting [6]), not below 25100 pM; in experiment [2] (first determination (n1)), not below 25 nM; in experiment [2] (second determination (n2)) it was not below 25.1 nM; in experiment [3] it was not below 25.1 nM.

`CC[C@H](C)[C@H](NC(=O)[C@](C)(Cc1ccccc1)NC(=O)[C@H](CCC(=O)O)NC(=O)[C@H](CCCCNC(=O)CCCCCNC(=O)CCCCCCCCCCCCCCCCC(=O)O)NC(=O)[C@H](C)NC(=O)[C@H](C)NC(=O)[C@H](CCC(=O)O)NC(=O)CNC(=O)[C@H](CCC(=O)O)NC(=O)[C@H](CC(C)C)NC(=O)[C@](C)(Cc1ccccc1)NC(=O)[C@H](CO)NC(=O)[C@](C)(CO)NC(=O)[C@@H](NC(=O)[C@H](CC(=O)O)NC(=O)[C@H](CO)NC(=O)[C@@H](NC(=O)[C@](C)(Cc1ccccc1)NC(=O)[C@H](CO)NC(=O)CNC(=O)[C@H](CCC(=O)O)NC(=O)C(C)(C)NC(=O)[C@@H](N)Cc1c[nH]cn1)[C@@H](C)O)C(C)C)C(=O)N[C@@H](C)C(=O)N[C@@](C)(Cc1ccccc1)C(=O)N[C@H](C(=O)N[C@H](C(=O)N[C@@](C)(CCCCN)C(=O)NCC(=O)NCC(N)=O)C(C)C)C(C)C` [compound 158]: the EC50 in experiment [1] (setting [4]) is 140 pM; in experiment [1] (setting [5]), 148 pM; in experiment [1] (setting [6]), 160 pM; in experiment [2] (first determination (n1)) it was not below 28 nM; in experiment [2] (second determination (n2)) it was not below 28 nM; in experiment [3], not below 28 nM.

Turning to `CCCCCCCCCCCCCCCCCC(=O)NCCOCCOCC(=O)NCCCC[C@H](NC(=O)[C@@H](NC(=O)[C@@H](NC(=O)[C@](C)(Cc1ccccc1)NC(=O)[C@H](C)NC(=O)[C@@H](NC(=O)[C@](C)(Cc1ccccc1)NC(=O)[C@H](CCC(=O)O)NC(=O)[C@](C)(CCCCN)NC(=O)[C@H](C)NC(=O)[C@H](C)NC(=O)[C@H](CCC(=O)O)NC(=O)CNC(=O)[C@H](CCC(=O)O)NC(=O)[C@H](CC(C)C)NC(=O)[C@](C)(Cc1ccccc1)NC(=O)[C@H](CO)NC(=O)[C@](C)(CO)NC(=O)[C@@H](NC(=O)[C@H](CC(=O)O)NC(=O)[C@H](CO)NC(=O)[C@@H](NC(=O)[C@](C)(Cc1ccccc1)NC(=O)[C@H](CO)NC(=O)CNC(=O)[C@H](CCC(=O)O)NC(=O)C(C)(C)NC(=O)[C@@H](N)Cc1c[nH]cn1)[C@@H](C)O)C(C)C)[C@@H](C)CC)C(C)C)C(C)C)C(=O)NCC(=O)NCC(N)=O` [compound 188], the EC50 in experiment [1] (setting [4]) is 170 pM; in experiment [1] (setting [5]), 125 pM; in experiment [1] (setting [6]), 77 pM; in experiment [2] (first determination (n1)), not below 28 nM; in experiment [2] (second determination (n2)), not below 28 nM; in experiment [3], not below 28 nM.
